# From patent US9695155B2, “Herbicidal substituted pyrimidinyloxy benzene compounds” (E. I. DU PONT DE NEMOURS AND COMPANY, priority 2013, dated 2017)
# Tests used:
# speedwell = assay: Test D postemergence; assay type: in vivo, Veronica persica; conditions: Veronica persica, post-emergence, scale 0 to 100 (0 no effect, 100 complete control), read-out: Plant response rating, Speedwell
# How it was run: (§1)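 After treatment, visual injury versus untreated plants, 0–100 scale, assessed at 7 to 21 days. Applications were made preemergence to silt loam-sown seed and postemergence to seedlings 2–18 cm high in potting medium.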
# kochia = assay: Test D preemergence; assay type: in vivo, Kochia scoparia; conditions: Bassia scoparia, pre-emergence, scale 0-100, read-out: Plant response rating, Kochia
# How it was run: as §1
# chickweed = assay: Test D preemergence; assay type: in vivo, Stellaria media; conditions: Stellaria media, pre-emergence, scale 0-100, read-out: Plant response rating, Chickweed
# How it was run: as §1
# dayflower = assay: Test E postemergence; assay type: in vivo, Commelina virginica; conditions: Commelina virginica, post-emergence, read-out: Plant response rating, Dayflower, VA
# How it was run: (§2)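 Test chemicals formulated in a non-phytotoxic solvent mixture containing a surfactant were applied preemergence to seeds in silt loam soil or postemergence to plants at the 1- to 4-leaf stage in potting mix. After 14 to 21 days in a greenhouse, injury was visually rated against controls on a 0-100 scale (0 = no effect, 100 = complete control).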
# wild oat = assay: Test D preemergence; assay type: in vivo, Avena fatua; conditions: Avena fatua, pre-emergence, scale 0-100, read-out: Plant response rating, Oat, Wild
# How it was run: as §1
# galium = assay: Test D preemergence; assay type: in vivo, Galium aparine; conditions: Galium, pre-emergence, scale 0-100, read-out: Plant response rating, Galium
# How it was run: as §1
# deadnettle = assay: Test D postemergence; assay type: in vivo, Lamium amplexicaule; conditions: Lamium amplexicaule, post-emergence, scale 0 to 100 (0 no effect, 100 complete control), read-out: Plant response rating, Deadnettle
# How it was run: as §1
# windgrass = assay: Test D postemergence; assay type: in vivo, Apera spica-venti; conditions: Apera spica-venti, post-emergence, scale 0 to 100 (0 no effect, 100 complete control), read-out: Plant response rating, Windgrass
# How it was run: as §1
# fall panicum = assay: Test E postemergence; assay type: in vivo, Panicum dichotomiflorum; conditions: Panicum dichotomiflorum, post-emergence, read-out: Plant response rating, Panicum, Fall
# How it was run: as §2
# pigweed = assay: Test D preemergence; assay type: in vivo, Amaranthus retroflexus; conditions: Amaranthus retroflexus, pre-emergence
# How it was run: as §1
# wild radish [1] = assay: Test D postemergence; assay type: in vivo, Raphanus raphanistrum; conditions: Raphanus raphanistrum, post-emergence, scale 0 to 100 (0 no effect, 100 complete control), read-out: Plant response rating, Radish, Wild
# How it was run: as §1
# field bindweed = assay: Test E postemergence; assay type: in vivo, Convolvulus arvensis; conditions: Convolvulus arvensis, post-emergence, read-out: Plant response rating, Field Bindweed
# How it was run: as §2
# wild radish [2] = assay: Test D preemergence; assay type: in vivo, Raphanus raphanistrum; conditions: Raphanus raphanistrum, pre-emergence
# How it was run: as §1
# Italian ryegrass = assay: Test D preemergence; assay type: in vivo, Lolium multiflorum; conditions: Lolium multiflorum, pre-emergence
# How it was run: as §1
# [3] = Postemergence, 31 g ai/ha, scale 0 to 100
# [4] = Postemergence, 62 g ai/ha, scale 0 to 100
# [5] = Postemergence, 125 g ai/ha, scale 0 to 100
# [6] = Postemergence, 250 g ai/ha, scale 0 to 100
# [7] = postemergence, 16 g ai/ha, scale 0 to 100, 0 no effect, 100 complete control
structure (smiles),measurement,setting,value
"N#Cc1cccc(Oc2ncc(Br)cn2)c1-n1cc(C(F)(F)F)cn1 [Compound 59, 3-[(5-bromo-2-pyrimidinyl)oxy]-2-[4-(trifluoromethyl)-1H-pyrazol-1-yl]benzonitrile]",pest or weed control at 31 g/ha,speedwell; 31 g ai/ha,100%
same,pest or weed control at 62 g/ha,speedwell; 62 g ai/ha,75%
same,pest or weed control at 125 g/ha,speedwell; 125 g ai/ha,100%
same,pest or weed control at 250 g/ha,speedwell; 250 g ai/ha,100%
same,pest or weed control at 31 g/ha,kochia; 31 g ai/ha,90%
same,pest or weed control at 62 g/ha,kochia; 62 g ai/ha,80%
same,pest or weed control at 125 g/ha,kochia; 125 g ai/ha,100%
same,pest or weed control at 250 g/ha,kochia; 250 g ai/ha,100%
same,pest or weed control at 31 g/ha,chickweed; 31 g ai/ha,100%
same,pest or weed control at 62 g/ha,chickweed; 62 g ai/ha,100%
same,pest or weed control at 125 g/ha,chickweed; 125 g ai/ha,100%
same,pest or weed control at 250 g/ha,chickweed; 250 g ai/ha,95%
same,pest or weed control at 31 g/ha,dayflower; [3],35%
same,pest or weed control at 62 g/ha,dayflower; [4],50%
same,pest or weed control at 125 g/ha,dayflower; [5],70%
same,pest or weed control at 250 g/ha,dayflower; [6],100%
same,pest or weed control at 16 g/ha,dayflower; [7],20%
same,pest or weed control at 31 g/ha,wild oat; 31 g ai/ha,0%
same,pest or weed control at 62 g/ha,wild oat; 62 g ai/ha,0%
same,pest or weed control at 125 g/ha,wild oat; 125 g ai/ha,20%
same,pest or weed control at 250 g/ha,wild oat; 250 g ai/ha,55%
same,pest or weed control at 31 g/ha,galium; 31 g ai/ha,0%
same,pest or weed control at 62 g/ha,galium; 62 g ai/ha,95%
same,pest or weed control at 125 g/ha,galium; 125 g ai/ha,60%
same,pest or weed control at 250 g/ha,galium; 250 g ai/ha,100%
same,pest or weed control at 31 g/ha,deadnettle; 31 g ai/ha,70%
same,pest or weed control at 62 g/ha,deadnettle; 62 g ai/ha,75%
same,pest or weed control at 125 g/ha,deadnettle; 125 g ai/ha,100%
same,pest or weed control at 250 g/ha,deadnettle; 250 g ai/ha,100%
same,pest or weed control at 31 g/ha,windgrass; 31 g ai/ha,15%
same,pest or weed control at 62 g/ha,windgrass; 62 g ai/ha,25%
same,pest or weed control at 125 g/ha,windgrass; 125 g ai/ha,35%
same,pest or weed control at 250 g/ha,windgrass; 250 g ai/ha,45%
same,pest or weed control at 31 g/ha,fall panicum; [3],20%
same,pest or weed control at 62 g/ha,fall panicum; [4],20%
same,pest or weed control at 125 g/ha,fall panicum; [5],30%
same,pest or weed control at 250 g/ha,fall panicum; [6],45%
same,pest or weed control at 16 g/ha,fall panicum; [7],10%
same,pest or weed control at 31 g/ha,"pigweed; 31 g ai/ha, scale 0 (no effect) to 100 (complete control), read-out: Plant response rating, Pigweed",100%
same,pest or weed control at 62 g/ha,"pigweed; 62 g ai/ha, scale 0-100, read-out: Plant response rating, Pigweed",100%
same,pest or weed control at 125 g/ha,"pigweed; 125 g ai/ha, scale 0-100, read-out: Plant response rating, Pigweed",100%
same,pest or weed control at 250 g/ha,"pigweed; 250 g ai/ha, scale 0-100, read-out: Plant response rating, Pigweed",100%
same,pest or weed control at 31 g/ha,wild radish [1]; 31 g ai/ha,35%
same,pest or weed control at 62 g/ha,wild radish [1]; 62 g ai/ha,70%
same,pest or weed control at 125 g/ha,wild radish [1]; 125 g ai/ha,80%
same,pest or weed control at 250 g/ha,wild radish [1]; 250 g ai/ha,85%
same,pest or weed control at 31 g/ha,field bindweed; [3],60%
same,pest or weed control at 62 g/ha,field bindweed; [4],65%
same,pest or weed control at 125 g/ha,field bindweed; [5],70%
same,pest or weed control at 250 g/ha,field bindweed; [6],80%
same,pest or weed control at 16 g/ha,field bindweed; [7],50%
same,pest or weed control at 31 g/ha,"wild radish [2]; 31 g ai/ha, scale 0 (no effect) to 100 (complete control), read-out: Plant response rating, Radish, Wild",95%
same,pest or weed control at 62 g/ha,"wild radish [2]; 62 g ai/ha, scale 0-100, read-out: Plant response rating, Radish, Wild",100%
same,pest or weed control at 125 g/ha,"wild radish [2]; 125 g ai/ha, scale 0-100, read-out: Plant response rating, Radish, Wild",95%
same,pest or weed control at 250 g/ha,"wild radish [2]; 250 g ai/ha, scale 0-100, read-out: Plant response rating, Radish, Wild",100%
same,pest or weed control at 31 g/ha,"Italian ryegrass; 31 g ai/ha, scale 0 (no effect) to 100 (complete control), read-out: Plant response rating, Ryegrass, Italian",0%
same,pest or weed control at 62 g/ha,"Italian ryegrass; 62 g ai/ha, scale 0-100, read-out: Plant response rating, Ryegrass, Italian",5%
same,pest or weed control at 125 g/ha,"Italian ryegrass; 125 g ai/ha, scale 0-100, read-out: Plant response rating, Ryegrass, Italian",60%
same,pest or weed control at 250 g/ha,"Italian ryegrass; 250 g ai/ha, scale 0-100, read-out: Plant response rating, Ryegrass, Italian",70%
